Assay results: patent US9132084B2, “Methods for administration and formulations for the treatment of regional adipose tissue” (NEOTHETICS, INC., priority 2009, dated 2015)

Legend:
[1] = Plasma pharmacokinetics following single intravenous and subcutaneous injections of salmeterol xinafoate; settings: for AUC(0-inf): AUCinf; for half-life: t1/2
Procedure: Salmeterol xinafoate was formulated in 5% PEG-400 in 0.9% saline, USP, at concentrations of 0.1, 1, 10, and 100 μg/mL. 1 male and 1 female non-naive Gottingen minipigs (18.4 to 19.5 kg at the time of the IV dose) were utilized. The animals were housed individually.
Each minipig received a single IV injection followed by SC doses of the salmeterol formulation. The IV dose was administered by slow bolus (1 minute; 0.0167 hr) into the marginal ear vein, whereas the first SC dose was administered as a bolus injection along the back (neck-region) where there was a longitudinal fat depot. The second SC dose was distributed in 5 separate SC injection sites. The fourth, fifth, and sixth administrations were SC administrations divided over 5 injection sits of different graded concentrations (0.1, 1, and 10 μg/mL of salmeterol in 5% PEG). Each dose was separated by at least a 3-day washout period. Blood samples (approximately 4 mL) were collected via the branchiocephalic plexus at pre-dose and at 2.00, 5.00, 10.0, 20.0, 30.0 and 45.0 minutes, and at 1.00, 2.00, 4.00, 8.00 and 24.0 hr post-dose. Blood samples were placed in tubes containing K2-EDTA as the anticoagulant. Samples were processed to plasma by centrifugation and stored frozen at approximately −70° C. (+/−15° C.) until shipment for analysis.
Plasma samples were analyzed for salmeterol using a qualified liquid chromatography/mass spectrometry/mass mass spectrometry (LC/MS/MS) method. The lower limit of quantitation (LLOQ) was 2.50 pg/mL. Samples were analyzed within a maximum of 14.0 days of collection.
Non-compartmental pharmacokinetic parameters were calculated using WinNonlin 5.2 software, NCA model 202, IV infusion input for the IV data and NCA model 200, extravascular input for the SC data. Individual plasma concentrations for each animal were used in the calculation of pharmacokinetic parameters. Nominal collection times and doses were used in the calculations. The area under the plasma concentration-time curve (AUC) was calculated using linear trapezoidal approximation (linear/log interpolation). Concentration values below the assay limit of quantitation were set to zero for calculations. The maximum plasma concentration (Cmax) and the time of its occurrence (Tmax) were verified by inspection. The half-life (t1/2) values were calculated using the last 3 plasma concentrations with nonzero values, if data permitted.

[2] = versus albuterol, a short-acting hydrophilic beta-adrenergic agonist; cited from earlier work
[3] = system: abdominal subcutaneous adipose tissue
Description: To evaluate in a single masked, placebo-controlled design, the safety and exploratory efficacy measures of subcutaneous injections of three different doses of the combination of salmeterol xinafoate (SX) and fluticasone propionate (FP) administered by subcutaneous injection 1 or 2 times per week for 4 weeks to subjects with measurable abdominal subcutaneous adipose tissue.
A single-masked, placebo-controlled multiple-dose study of the safety and efficacy of three different doses of the combination of salmeterol xinafoate (SX) and fluticasone propionate (FP) administered by subcutaneous injection 1 or 2 times per week for 4 weeks in 60 subjects with measurable abdominal subcutaneous adipose tissue.
A 400 μg/mL sterile, preservative-free, clear, aqueous solution for injection of SX is contained in a 5 mL single-use glass vial. Each 5 mL single-use glass vial contains 2.6 mL of SX solution (400 μg/mL) which is stored frozen (−15° C. or below) and protected from light until dose preparation. A 25 mg/mL sterile, preservative free, clear, aqueous solution for injection of FP is contained in a 2 mL single-use glass vial. […]
Measurements of waist were taken at specified time points. […] The full waist circumference, and the right and the left hemi-circumferences were recorded.

[4] = system: abdominal subcutaneous adipose tissue; test: Phase 2 double-masked evaluation of safety and efficacy of SX and FP subcutaneous injection; settings: total weekly SX/FP dose of 11 μg/22 μg
Description: A Phase 2 study to examine the potential of selected doses of salmeterol xinafoate (SX) and fluticasone propionate (FP) co-administered to reduce abdominal subcutaneous adipose tissue, which is an interim surrogate to guide studies in subjects with symptomatic exophthalmos associated with thyroid-related eye disease (TED). The study also evaluated the safety and efficacy of subcutaneous injections of salmeterol xinafoate (SX) and fluticasone propionate (FP) for the reduction of abdominal (peri- and infra-umbilical) adiposity. The study compared the efficacy and safety of salmeterol xinafoate (SX) and fluticasone propionate (FP) at 1.0 μg FP and 0.05 μg SX once weekly to 1 mL placebo once weekly for 8 weeks for the reduction of measurable, abdominal subcutaneous adipose tissue. Additionally, the study evaluated in a double-masked, placebo-controlled design, the pharmacokinetics following multiple injected doses of salmeterol xinafoate (SX) and fluticasone propionate (FP) once weekly for 8 weeks. […]
All injections were performed in an outpatient setting. […] Once the study was completed and unmasked, only the serum samples collected from subjects receiving the higher combination dose were analyzed.

[5] = Phase 1 open-label pharmacokinetics and safety of SX and FP co-administered subcutaneously in healthy volunteers; settings: 52 μg salmeterol xinafoate with 22 μg fluticasone propionate SC once per week for 4 weeks
Procedure: Part III: An open-label, multiple-dose pharmacokinetic study of the selected SX+FP combined dose administered subcutaneously either 1 time per week for 4 weeks or 3 times per week for 4 weeks in twelve (12) healthy volunteers.
A 400 μg/mL sterile, preservative-free, clear, aqueous solution for injection of SX is contained in a 5 mL single-use glass vial. Each 5 mL single-use glass vial contains 2.6 mL of SX solution (400 μg/mL) which is stored frozen (−15° C. to −25° C.) and protected from light until dose preparation. A 25 mg/mL sterile, preservative free, clear, aqueous solution for injection of FP is contained in a 2 mL single-use glass vial. Each 2 mL single-use glass vial contains 1.0 mL of FP solution (25 μg/mL) which is stored frozen (−15° C. to −25° C.) and protected from light until dose preparation. Diluent: A sterile, preservative free, clear, aqueous solution of 20% PEG 400, 1% polysorbate 80, and sterile water for injection contained in a 10 mL single-use glass vial. Each 10 mL single-use glass vial contains 5.0 mL of diluent solution which should be stored at room temperature (15° C. to 25° C.). Prior to administration, the drug products are thawed, mixed, and if necessary diluted with sterile diluent to provide the target concentrations for dose administration. […]

[6] = female, Gottingen, minipig, in vivo, iv, 4 ug/kg
[7] = female, Gottingen, minipig, in vivo, sc, 0.4 ug/kg
[8] = female, Gottingen, minipig, in vivo, sc, 4 ug/kg
[9] = male, Gottingen, minipig, in vivo, iv, 4 ug/kg
[10] = male, Gottingen, minipig, in vivo, sc, 0.4 ug/kg
[11] = male, Gottingen, minipig, in vivo, sc, 4 ug/kg

OCc1cc(C(O)CNCCCCCCOCCCCc2ccccc2)ccc1O (racemic) [Salmeterol, ±2-(hydroxymethyl)-4-[1-hydroxy-2-[6-(4-phenylbutoxy)hexylamino]ethyl]-phenol]
Tmax ([1]; SC5 (5 sites) 4 μg/kg, male 1-0771): 0.0833 h | salmeterol partition ratio (plasma Cmax ratio of subcutaneous to intravenous administration) ([1]; both, Gottingen, minipig, in vivo): 0.1 | concentration at 0.0833 hr ([1]; female, Gottingen, minipig, in vivo): 0.485 ng/mL | bioavailability ([1]; female, Gottingen, minipig, in vivo, 0.4 ug/kg, F (bioavailability)): 112% | concentration at 0.0833 hr ([1]; female, Gottingen, minipig, in vivo, 0.04 mg/kg): 0.00317 ng/mL | concentration at 0.0833 hr ([1]; female, Gottingen, minipig, in vivo, iv): 1.3 ng/mL | Vd [1, 6]: 22.1 L/kg | clearance [1, 6]: 45.5 mL/min/kg | AUC(0-inf) [1, 6]: 1.47 ng·h/mL | Cmax ([1]; female, Gottingen, minipig, in vivo, iv, 4 ug/kg, Cmax): 4.95 ng/mL | Tmax ([1]; female, Gottingen, minipig, in vivo, iv, 4 ug/kg, Tmax): 0.0333 h | half-life [1, 6]: 9.52 h | concentration at 0.0833 hr ([1]; female, Gottingen, minipig, in vivo, sc): 0.227 ng/mL | Cmax ([1]; female, Gottingen, minipig, in vivo, sc, 0.004 ug/kg, Cmax): 0.00308 ng/mL | Tmax ([1]; female, Gottingen, minipig, in vivo, sc, 0.004 ug/kg, Tmax): 1 h | Cmax ([1]; female, Gottingen, minipig, in vivo, sc, 0.04 ug/kg, Cmax): 0.00831 ng/mL | Tmax ([1]; female, Gottingen, minipig, in vivo, sc, 0.04 ug/kg, Tmax): 0.0333 h | F (bioavailability) [1, 7]: 1.12 | AUC(0-inf) [1, 7]: 0.164 ng·h/mL | Cmax ([1]; female, Gottingen, minipig, in vivo, sc, 0.4 ug/kg, Cmax): 0.113 ng/mL | Tmax ([1]; female, Gottingen, minipig, in vivo, sc, 0.4 ug/kg, Tmax): 0.0333 h | half-life [1, 7]: 2.88 h | AUCinf [1, 8]: 2.01 ng·h/mL | Cmax [1, 8]: 0.626 ng/mL | F (bioavailability) [1, 8]: 1.37 | t1/2 [1, 8]: 8.58 h | AUC(0-inf) [1, 8]: 1.85 ng·h/mL | Cmax ([1]; female, Gottingen, minipig, in vivo, sc, 4 ug/kg, Cmax): 0.403 ng/mL | bioavailability ([1]; female, Gottingen, minipig, in vivo, sc, 4 ug/kg, F (bioavailability)): 126% | bioavailability ([1]; female, Gottingen, minipig, in vivo, sc, 4 ug/kg, bioavailability): 126 to 137% | half-life [1, 8]: 6.02 h | concentration at 0.0833 hr ([1]; male, Gottingen, minipig, in vivo): 0.681 ng/mL | bioavailability ([1]; male, Gottingen, minipig, in vivo, 0.4 ug/kg, F (bioavailability)): 78.9% | concentration at 0.0833 hr ([1]; male, Gottingen, minipig, in vivo, 0.04 mg/kg): 0.00277 ng/mL | concentration at 0.0833 hr ([1]; male, Gottingen, minipig, in vivo, iv): 1.38 ng/mL | Vd [1, 9]: 17.1 L/kg | clearance [1, 9]: 38 mL/min/kg | AUC(0-inf) [1, 9]: 1.75 ng·h/mL | Cmax ([1]; male, Gottingen, minipig, in vivo, iv, 4 ug/kg, Cmax): 4.29 ng/mL | Tmax ([1]; male, Gottingen, minipig, in vivo, iv, 4 ug/kg, Tmax): 0.0333 h | half-life [1, 9]: 7.89 h | concentration at 0.0833 hr ([1]; male, Gottingen, minipig, in vivo, sc): 0.575 ng/mL | Tmax ([1]; male, Gottingen, minipig, in vivo, sc, 0.04 ug/kg): 0.0833 h | Cmax ([1]; male, Gottingen, minipig, in vivo, sc, 0.04 ug/kg, Cmax): 0.00277 ng/mL | F (bioavailability) [1, 10]: 0.789 | Tmax [1, 10]: 0.0833 h | AUC(0-inf) [1, 10]: 0.138 ng·h/mL | Cmax ([1]; male, Gottingen, minipig, in vivo, sc, 0.4 ug/kg, Cmax): 0.0645 ng/mL | half-life [1, 10]: 2.94 h | AUCinf [1, 11]: 1.51 ng·h/mL | Cmax [1, 11]: 0.681 ng/mL | F (bioavailability) [1, 11]: 0.863 | Tmax [1, 11]: 0.0833 h | t1/2 [1, 11]: 6.84 h | AUC(0-inf) [1, 11]: 1.29 ng·h/mL | Cmax ([1]; male, Gottingen, minipig, in vivo, sc, 4 ug/kg, Cmax): 0.575 ng/mL | bioavailability ([1]; male, Gottingen, minipig, in vivo, sc, 4 ug/kg, F (bioavailability)): 73.7% | bioavailability ([1]; male, Gottingen, minipig, in vivo, sc, 4 ug/kg, bioavailability): 73.7 to 86.3% | half-life [1, 11]: 5.92 h | partition ratio relative to the partition ratio of formoterol ([1]; minipig, in vivo): about five times lower | Cmax ([1]; minipig, in vivo, 0.004 ug/kg): 0 ng/mL | lipophilicity relative to albuterol [2]: at least 10,000 times

OCc1cc(C(O)CNCCCCCCOCCCCc2ccccc2)ccc1O (stereo not drawn) [salmeterol xinafoate]
efficacy of once per week versus twice per week dosing ([3]; human clinical trial, FIGS. 3B and 7B): more efficacious than twice per week dosing | dose-therapeutic efficacy response (change in waist circumference) ([3]; lowest dose 0.5 μg salmeterol xinafoate once per week for 4 weeks, with fluticasone, versus higher weekly doses): greatest therapeutic efficacy

fluticasone propionate
plasma levels relative to 505(b)(2) reference levels produced by an FDA-approved drug [4]: ⅓-⅕ | Cmax and AUC at day 22 compared to day 1 [5]: increase
